Reference: patent publication US9670217B2, “Process for preparing chlorins and their pharmaceutical uses” (UNIVERSIDADE DE COIMBRA, priority 2008, dated 2017)
Like-named read-outs stand apart in the source and are kept apart here.

How the values were obtained:
[1] = in toluene [12]; cited from earlier work
[2] = cited from earlier work
[3] = Photobleaching under 748 nm diode laser irradiation; assay type: physicochemical; settings: 100 mW laser irradiation at 748 nm
Excerpt: The irradiation of bacteriochlorins in the photobleaching experiments employed the 748 nm Lynx diode laser. For animal studies we employed a costumer-made Hamamatsu diode laser, type LA0873. S/N M070301, which delivered 140 mW at 748 nm. This diode laser was controlled by a ThorLabs 500 mA ACC/APC Laser Diode Controller and in-house electronics. The laser energies of this and the other higher-energy lasers employed in this work were regularly checked with an Ophir model AN/2E laser power meter.
Photobleaching experiments were conducted in PBS. PBS:methanol (50:50) and methanol solutions. The solutions were irradiated in a cuvette with an optical path of 1 cm and the Lynx diode laser. The initial absorption of the solutions was ca. 0.8. The mechanism of photobleaching was assessed with the irradiation of the sensitizer using the Hamamatsu diode laser at 80 mW. The sensitizer was irradiated in PBS and in the presence of ascorbic acid or azide.
The chemical stability of the compounds was studied exposing them to light, air, and pH changes. The most significant degradation occurs for aerated solutions irradiated by light of the appropriate wavelength. In such circumstances the photobleaching of the compounds follows a first-order rate and is proportional to the energy of the incident laser light. In general, it was also observed that the photobleaching rate increases with the amount of water present in the solution. Bennett reported the photoconversion of Foscan® (m-THPC) and of the analogous bacteriochlorin (m-THPB) in PBS:methanol (50:50). Scherz reported the photoconversion of Tookad® in acetone and Triton-X:PBS [3]. For the purpose of comparing the photostability of Luzitins with that of Foscan® and Tookad®, we present in Table 2 the half-lives (t1/2) of representative drugs described herein, together with those of Foscan and Tookad® normalized for a laser power of 100 mW.
Luzitin-FMet was dissolved in PBS:methanol (2:3), transferred to a 1 cm quartz cell and its absorption spectrum was registered, FIG. 6. The quartz cell was then placed in the beam of the 748 nm Lynx diode laser, previously unfocused to have a beam diameter coincident with the window of the quartz cell. The laser power measured under these conditions was 28.8 mW. Every 5 minutes the irradiation was interrupted and a new absorption spectrum was registered. This procedure was followed for 65 minutes. The photobleaching follows the kinetics of a first-order reaction in the time window of the experiment. […] Whereas the bacteriochlorin peak at 743 nm is reduced from an absorbance of 1.128 to 0.337, the absorption of the chlorin only increases from 0.114 to 0.151. Taking into consideration the molar absorption coefficients of the compounds at these wavelengths, it is clear that whereas 70% of the bacteriochlorin is destroyed during the irradiation, only a few percent of chlorin are formed.
The half-lives of other bacteriochlorins normalized 100 mW laser irradiation at 748 nm are presented in […], together with the literature data for the photodegradation of Foscan® and Tookad® normalized for the same light intensity. It was also observed that the half-live to Luzitin-Cl is increased by a factor of 30 when the PBS solution of the photosensitizer is saturated with Argon, which reduces the oxygen concentration in the solution.

[4] = Absorption spectra (λmax, molar absorption coefficient); assay type: physicochemical; settings: ethanol solutions
Procedure: (§1) Absorption spectra were recorded on a Shimadzu UV-2100 spectrophotometer or with a Carry 50 Biospectrophotometer (Varian, Mulgrave, USA). Fluorescence spectra were measured with a Spex Fluorolog 3 spectrophotometer, with correction for the wavelength dependence system (RCA C31034 photomultiplier), or with a PerkinElmer LS 50 spectrofluorimeter. Transient absorption spectra were measured with an Applied Photophysics LKS 60 nanosecond laser flash photolysis kinetic spectrometer, using the third harmonic of a Spectra-Physics Quanta Ray GCR 130-01 Nd/YAG laser for excitation, a Hamamatsu 1P28 photomultiplier and a Hewlett-Packard Infinium oscilloscope (1 GS/s). Flash photolysis measurements were made in the presence of air and in argon saturated solutions. Photoacoustic calorimetry employed the same Nd/YAG laser, a home-made front-face photoacoustic cell with a 2.25 MHz Panametrics transducer (model 5676) and a Tektronix DSA 601 transient recorder. Room-temperature singlet-oxygen phosphorescence was measured at 1270 nm with a Hamamatsu R5509-42 photomultiplier, cooled to 193 K in a liquid nitrogen chamber (Products for Research model PC176TSCE005), following laser excitation of aerated solutions at 355 nm, using an adapted Applied Photophysics spectrometer. Singlet oxygen emission at 1270 nm was also monitored with a liquid nitrogen-cooled germanium detector (North Coast) coupled to a Tectronix Digitizing scope (TDS 520B), following sample excitation with 5 ns laser pulses of the third harmonic (355 nm) generated by a Q-switched Nd:YAG laser (Continuum Surelite II).
(§2) This is indicative of little aggregation between the molecules, which exist mostly as monomers at these concentrations in the solvents studied. Table 1 presents typical red and infrared molar absorption coefficients (εmax) and wavelength maxima. The same table also presents representative fluorescence quantum yields (ΦF) of Luzitins. The fluorescence quantum yields decrease of these molecules decrease in the presence of chlorine substituents, a fingerprint of the heavy atom effect expected for such molecules.

[5] = Singlet oxygen quantum yield and lifetime (1270 nm phosphorescence); assay type: physicochemical; settings: air-saturated ethanol
Procedure: as §1
Singlet oxygen quantum yields in ethanol were obtained using a procedure described by some of us, using phenalenone as reference. The literature value for the singlet oxygen quantum yield obtained with phenalenone in ethanol is ΦΔ=0.95 [38].
All the singlet oxygen emissions measured in aerated ethanol solutions are very well described by mono-exponential decays, with typical singlet oxygen lifetimes (τΔ). The ΦΔ values of Table 1 were obtained by the procedures described above and are representative of these photosensitisers.
An air-saturated solution of Luzitin-Cl2Hep in ethanol with an absorbance ca. 0.2 at 355 nm was excited in a 1 cm quartz cuvette by a pulsed Nd:YAG laser, and the singlet oxygen emission was followed at 1270 nm, using the equipment and methods previously described. The intensity of the singlet oxygen phosphorescence was studied as a function of the laser intensity. A similar study was made with phenalenone in ethanol, at a concentration matching the absorbance of Luzitin-Cl2Hep at 355 nm. […] Various laser energies were employed and from the slopes of the energy dependence of singlet oxygen emission and the value of ΦΔ=0.95 for phenalenone in this ethanol, we obtained ΦΔ=0.78 for Luzitin-Cl2Hep.

[6] = Fluorescence quantum yield; assay type: physicochemical; settings: ethanol
Procedure: The absorptions of both reference and sample solutions were matched at ca 0.2 at the excitation wavelength of 515.5 nm, and the solutions were diluted by a factor 10 before collecting the fluorescence. The fluorescence quantum yield was obtained from the ratio of the fluorescence bands of the sample vs the reference, multiplied by the fluorescence quantum yield of the reference, 0.012 according to [12], after correction for the difference of refractive indexes of ethanol and toluene.
as §2

[7] = Triplet lifetime by laser flash photolysis; assay type: physicochemical; settings: air-saturated ethanol
Procedure: as §1
The triplet-triplet absorption spectra and the triplet lifetimes of the photosensitisers (τT) were measured with the transient absorption spectra equipment described above, with excitation at 355 nm, where the solutions had absorbances between 0.25 and 0.30.
The triplet-triplet absorption spectra of the Luzitins measured in this work were in good agreement with that in the literature data for chlorins and bacteriochlorins. All triplet decays were clearly mono-exponential. […] Such values are consistent with diffusion limited energy transfer from the triplet state of the sensitizer to molecular oxygen through a charge-transfer interaction.

[8] = n-octanol:water partition coefficient (shake-flask); assay type: physicochemical
Procedure: The n-octanol:water partition coefficients (CP) were measured using a minor modification of the shake-flask method described by some of us in the literature. The modification concerned the excitation of the absorption band ca 500 nm and the collection of the fluorescence in the red/IR region.

[9] = tested on: human adenocarcinoma (HT29) cell line; settings: HT29, irradiation of 25 J/cm^2 (US2003/6,569,846); read-out: dose causing 50% death rate; cited from earlier work
[10] = reference, in ethanol [38]; cited from earlier work

Clc1cccc(Cl)c1-c1c2nc(c(-c3c(Cl)cccc3Cl)c3ccc([nH]3)c(-c3c(Cl)cccc3Cl)c3nc(c(-c4c(Cl)cccc4Cl)c4ccc1[nH]4)CC3)CC2 [Cl2PhB, 5,10,15,20-tetrakis(2,6-dichlorophenyl)bacteriochlorin]
fluorescence quantum yield of the reference [1]: 0.012

Oc1cccc(-c2c3nc(c(-c4cccc(O)c4)c4ccc([nH]4)c(-c4cccc(O)c4)c4nc(c(-c5cccc(O)c5)c5ccc2[nH]5)CC4)C=C3)c1 [Foscan®, 5,10,15,20-tetrakis(3-hydroxyphenyl)chlorin]
t1/2 (half-life) ([2]; PBS:methanol, literature [46] normalized for a laser power of 100 mW): 8,582 sec

CCCCCCCNS(=O)(=O)c1ccc(Cl)c(-c2c3nc(c(-c4c(Cl)ccc(S(=O)(=O)NCCCCCCC)c4Cl)c4ccc([nH]4)c(-c4c(Cl)ccc(S(=O)(=O)NCCCCCCC)c4Cl)c4nc(c(-c5c(Cl)ccc(S(=O)(=O)NCCCCCCC)c5Cl)c5ccc2[nH]5)CC4)CC3)c1Cl [Luzitin-Cl2Hep, 5,10,15,20-tetrakis(2,6-dichloro-3-N-heptylsulfamoylphenyl)bacteriochlorin]
t1/2 (photobleaching half-life) ([3]; methanol): 164,105 sec | εmax [4]: 75,000 M^−1 cm^−1 | λmax [4]: 746 nm | τΔ (singlet oxygen lifetime) [5]: 14.3 μsec | ΦΔ (singlet oxygen quantum yield) ([5]; phenalenone as reference): 0.63 | ΦF (fluorescence quantum yield) [6]: 0.0082 | τT (air) triplet lifetime [7]: 295 nsec | log KOW (n-octanol:water partition coefficient) [8]: >4

O=S(=O)(O)c1ccc(F)c(-c2c3nc(c(-c4cc(S(=O)(=O)O)ccc4F)c4ccc([nH]4)c(-c4cc(S(=O)(=O)O)ccc4F)c4nc(c(-c5cc(S(=O)(=O)O)ccc5F)c5ccc2[nH]5)CC4)CC3)c1 [Luzitin-F, 5,10,15,20-tetrakis(2-fluoro-5-sulfonylphenyl)bacteriochlorin]
t1/2 (photobleaching half-life) ([3]; PBS): 58 s

CN(C)S(=O)(=O)c1ccc(F)c(-c2c3nc(c(-c4cc(S(=O)(=O)N(C)C)ccc4F)c4ccc([nH]4)c(-c4cc(S(=O)(=O)N(C)C)ccc4F)c4nc(c(-c5cc(S(=O)(=O)N(C)C)ccc5F)c5ccc2[nH]5)CC4)CC3)c1 [Luzitin-FMet2, 5,10,15,20-tetrakis(2-fluoro-5-N,N-dimethysulfamoylphenyl)bacteriochlorin]
t1/2 (photobleaching half-life) ([3]; methanol): 4,352 sec | λmax [4]: 742.5 nm | εmax ([4]; corrected for the chlorin content): 78,000^d) M^−1 cm^−1 | ΦF (fluorescence quantum yield) [6]: 0.0585 | log KOW (n-octanol:water partition coefficient) [8]: >4

CC[C@H]1c2cc3[n-]c4c(c3C)C(=O)[C@H](C(=O)OC)c4c3nc(cc4[n-]c(cc(n2)[C@@H]1C)c(C(C)=O)c4C)[C@@H](C)[C@@H]3CCC(=O)O.[Pd+2] [Tookad®]
t1/2 (half-life) ([2]; buffer): 1.56 s | IC50 [9]: 48 µM

O=C1C=Cc2cccc3cccc1c23 [phenalenone]
ΦΔ (singlet oxygen quantum yield) [10]: 0.95
